From patent publication US6562872B1, “Emulsion of perfluoroorganic compounds for medical purposes, a process for the preparation thereof and methods for treating and preventing diseases with the use thereof” (Otkrytoe Aktsionernoe Obschestvo Naucho-Proizvodstven-Naya …, priority 2001, dated 2003)
In brackets after ≈: the same amount, converted by molar mass.

Tests used:
[1] = Solubility of PFOCs in olive oil lipids; format: physicochemical; details: oil or lipid, 37° C.
[2] = Solubility of PFOCs in membranes of erythrocytes; format: physicochemical; details: 37° C.

SMILES | solubility [1] [mM] | Solubility in membranes [2]
FC1(F)C(F)(F)C(F)(F)C2(F)C(F)(F)C(F)(F)C(F)(F)C(F)(F)C2(F)C1(F)F (centres unmarked) [Perfluorodecalin (PFD), perfluorodecalin] | 26 (≈ 12000 µg/mL) | 2.0 ml per kg of dry membranes
FC(F)(F)C(F)(F)C(F)(F)C(F)(F)N(C(F)(F)C(F)(F)C(F)(F)C(F)(F)F)C(F)(F)C(F)(F)C(F)(F)C(F)(F)F [Perfluorotributylamine] | 1.2 (≈ 805 µg/mL) | 0.08 ml per kg of dry membranes
FC(F)(F)C(F)(F)C(F)(F)N(C(F)(F)C(F)(F)C(F)(F)F)C(F)(F)C(F)(F)C(F)(F)F [Perfluorotripropylamine] | 5.1 (≈ 2660 µg/mL) | 0.3 ml per kg of dry membranes
FC(F)(F)C1(F)C(F)(F)C(F)(F)C(F)(N2C(F)(F)C(F)(F)C(F)(F)C(F)(F)C2(F)F)C(F)(F)C1(F)F (centres unmarked) [perfluoro-N-(4-methylcyclohexyl)-piperidine] | 7.6 (≈ 4520 µg/mL) | 0.5 ml per kg of dry membranes
